We go through 20 compounds from paper PMC9851200, “Multiparameter phenotypic screening for endogenous TFEB and TFE3 translocation identifies novel chemical series modulating lysosome function” (Autophagy, 2022).

Each structure is given as a SMILES string. Like-named read-outs stand apart in the source and are kept apart here.

Holding throughout (details): PKIS2 primary screening
The subject of data set [1] is SH-SY5Y cells. The experiment in a line: AK (adenylate kinase) release ToxiLight cytotoxicity assay. Also: reference of the scale not given here.
Data set [2] deals with endogenous TFEB. The experiment in a line: TFEB nuclear translocation, immunocytochemistry high-content imaging. Type of data set: cell-based.
Data set [3] deals with endogenous TFE3. The experiment in a line: TFE3 nuclear translocation, immunocytochemistry high-content imaging. The format is cell-based.
The test system of data set [4] is SH-SY5Y cells. The experiment in a line: Nuclear count from microscopy images (cellular growth and toxicity). Also: reference of the scale not given here.
In data set [5] the test system is SH-SY5Y cells.
Text: The PKIS2 Library was supplied by The Structural Genomics Consortium at the University of North Carolina at Chapel Hill.
For DQ Intensity in this document: reference of the scale not given here.
For DQ Spot in this document: reference of the scale not given here.

Compound `Cc1ccc(NC(=O)Nc2cc(C(C)(C)C)nn2-c2ccccc2)cc1` [UNC10225353A] had an AK in data set [1] of 76.54. This compound also displayed a TFEB % in data set [2] of 9.78%. The same compound yielded a TFE3 % in data set [3] of 7.76%. Besides, the “Nuclear Count” value in data set [4] is listed as 116.98. Besides, in data set [5], the “DQ Intensity” value is listed as 116.80 and the “DQ Spot” value is 100.99.

With `COC(=O)c1cccc(NC(=O)NCCNc2ccnc(Nc3ccc(F)cc3)n2)c1` [GSK1379883], the AK in data set [1] is on record as 105.04. In data set [2], this compound came in with a TFEB % of 8.27%. For the same compound, the TFE3 % in data set [3] was 3.78%. For the same compound, in data set [4], the “Nuclear Count” value was 115.63. The “DQ Intensity” value in data set [5] (DQ Red BSA intensity) was found to be 102.62. For the same compound, the “DQ Spot” value in data set [5] (DQ Red BSA spot count) came to 95.44.

With `O=C(O)C(F)(F)F.O=c1[nH]ccc2nc(N[C@@H]3CCNC3)nc(Nc3ccc4c(c3)S(=O)(=O)CC4)c12` [UNC10225451A], the AK in data set [1] was determined as 185.61. The compound also gave a TFEB % in data set [2] of 7.05%. The compound further yielded a TFE3 % in data set [3] of 16.36%. The “Nuclear Count” value in data set [4] is 98.38. In data set [5], the “DQ Intensity” value stood at 83.68 and the “DQ Spot” value was 100.25.

`Clc1ccc(-c2nn3ncccc3c2-c2ccnc(Nc3ccc4c(c3)OCCO4)n2)cc1` [UNC10225358A]: the AK in data set [1] is 157.53. The TFEB % in data set [2] is 8.16%. The TFE3 % in data set [3] came out at 11.64%. Also, in data set [4], the “Nuclear Count” value was found to be 125.14. Moreover, in data set [5], the “DQ Intensity” value amounted to 88.44 and the “DQ Spot” value was 98.66.

Compound `COC(=O)c1cccc(NC(=O)NC2CCN(c3ccnc(Nc4cc(OC)c(OC)c(OC)c4)n3)C2)c1` (stereo not drawn) [GSK1379767] displayed an AK in data set [1] of 115.43. The TFEB % in data set [2] was determined as 5.97%. This compound gave a TFE3 % in data set [3] of 6.50%. The “Nuclear Count” value in data set [4] is listed as 122.32. Further, in data set [5] (DQ Red BSA intensity), the “DQ Intensity” value stood at 85.74. The “DQ Spot” value in data set [5] (DQ Red BSA spot count) is 95.59.

With `COc1cc(Nc2nccc(N3CCC(NS(=O)(=O)c4ccc(NC(C)=O)cc4)CC3)n2)cc(OC)c1OC` [GSK1379825], the AK in data set [1] is reported as 75.82. For the same compound, the TFEB % in data set [2] is on record as 12.82%. For the same compound, in data set [3], the TFE3 % was 12.08%. Moreover, the “Nuclear Count” value in data set [4] came to 107.84. Also, in data set [5] (DQ Red BSA intensity), the “DQ Intensity” value is recorded as 96.24. For the same compound, the “DQ Spot” value in data set [5] (DQ Red BSA spot count) came to 89.82.

Take `CN(c1ccc(NC(=O)N2CCN(CCCN3CCOCC3)CC2)cc1)c1ccnc(Nc2ccc(CS(C)(=O)=O)cc2)n1` [GW830899]: in data set [1], the AK came to 75.66. For the same compound, the TFEB % in data set [2] is 7.11%. Besides, the TFE3 % in data set [3] amounted to 11.27%. For the same compound, the “Nuclear Count” value in data set [4] came out at 123.35. Besides, the “DQ Intensity” value in data set [5] (DQ Red BSA intensity) amounted to 91.97. In data set [5] (DQ Red BSA spot count), the “DQ Spot” value came to 98.21.

With `NC(=O)c1cccc(Nc2nccc(Nc3ccc(Oc4cccc(Cl)c4)c(Cl)c3)n2)c1` [GW659008], the AK in data set [1] was 92.69. The same compound came in with a TFEB % in data set [2] of 11.92%. Further, the TFE3 % in data set [3] came to 11.36%. Besides, the “Nuclear Count” value in data set [4] was 86.88. In data set [5] (DQ Red BSA intensity), the “DQ Intensity” value came out at 100.37. Moreover, the “DQ Spot” value in data set [5] (DQ Red BSA spot count) is 103.30.

`Cc1ccc(NC(=O)Nc2ccccc2F)cc1-c1ccc(C(=O)Nc2ccncc2)cc1` [UNC10225398A]: in data set [1], the AK stood at 135.60. The TFEB % in data set [2] was 7.18%. In data set [3], the TFE3 % was 17.53%. For the same compound, the “Nuclear Count” value in data set [4] is 104.03. Further, in data set [5], the “DQ Intensity” value is reported as 90.99 and the “DQ Spot” value came out at 98.29.

Compound `COC(=O)Nc1nc2ccc(Oc3ccc(NC(=O)Nc4cc(C(F)(F)F)ccc4F)cn3)cc2[nH]1` [GW681170] gave an AK in data set [1] of 96.18. Moreover, in data set [2], the TFEB % worked out at 3.10%. In addition, in data set [3], the TFE3 % stood at 18.59%. Further, the “Nuclear Count” value in data set [4] came out at 116.32. For the same compound, in data set [5] (DQ Red BSA intensity), the “DQ Intensity” value was found to be 102.17. Further, the “DQ Spot” value in data set [5] (DQ Red BSA spot count) was found to be 112.93.

The compound `Cl.Cl.Cl.Fc1ccc(-c2ncn(C3CCNCC3)c2-c2ccnc(Nc3ccccc3)n2)cc1` [UNC10225420A] showed an AK in data set [1] of 105.24. Also, the TFEB % in data set [2] was 8.15%. In data set [3], this compound gave a TFE3 % of 15.52%. Moreover, the “Nuclear Count” value in data set [4] came out at 78.56. In data set [5], the “DQ Intensity” value was 95.71 and the “DQ Spot” value worked out at 100.38.

`Cc1ccc(C)c(NC(=O)NC2CCN(c3ccnc(Nc4ccc(F)cc4)n3)C2)c1` (stereo not drawn) [GSK1379720] came in with an AK in data set [1] of 98.80. Besides, in data set [2], the TFEB % stood at 6.06%. Further, the TFE3 % in data set [3] is 10.49%. For the same compound, the “Nuclear Count” value in data set [4] worked out at 92.38. Also, the “DQ Intensity” value in data set [5] (DQ Red BSA intensity) was 115.10. The “DQ Spot” value in data set [5] (DQ Red BSA spot count) was 109.75.

`Cc1c(Cn2c3ccccc3n3c(=O)cc(N4CCOCC4)nc23)cccc1C(F)(F)F` [UNC10225195A] came in with an AK in data set [1] of 76.50. Also, in data set [2], the TFEB % was 7.03%. Also, the TFE3 % in data set [3] came to 10.62%. Moreover, in data set [4], the “Nuclear Count” value was 108.51. In data set [5], the “DQ Intensity” value is reported as 86.55 and the “DQ Spot” value is 100.26.

The compound `O=C(Nc1n[nH]c2nc(-c3ccco3)c(Br)cc12)c1ccc(CN2CCCC2)cc1` [SB-742352] gave an AK in data set [1] of 95.96. For the same compound, the TFEB % in data set [2] was determined as 7.90%. This compound showed a TFE3 % in data set [3] of 19.33%. The “Nuclear Count” value in data set [4] was determined as 100.71. The “DQ Intensity” value in data set [5] (DQ Red BSA intensity) amounted to 92.66. Further, the “DQ Spot” value in data set [5] (DQ Red BSA spot count) stood at 91.08.

For `Nc1nc(-c2ccc3c(N)n[nH]c3c2)cc(N2CCCCC2)n1` [GSK2228768], the AK in data set [1] came out at 117.34. Moreover, the TFEB % in data set [2] is given as 3.41%. This compound also registered a TFE3 % in data set [3] of 12.52%. Besides, in data set [4], the “Nuclear Count” value came to 85.37. The “DQ Intensity” value in data set [5] (DQ Red BSA intensity) came out at 114.62. Besides, the “DQ Spot” value in data set [5] (DQ Red BSA spot count) is recorded as 125.41.

In the case of `CN1CCN(CCCNc2nccc(-c3c(-c4ccc(F)cc4)nn4cc(C(N)=O)ccc34)n2)CC1` [UNC10225188A], the AK in data set [1] was determined as 105.02. Besides, the TFEB % in data set [2] is 6.08%. For the same compound, the TFE3 % in data set [3] is 19.47%. The “Nuclear Count” value in data set [4] worked out at 94.19. Besides, in data set [5], the “DQ Intensity” value is listed as 87.92 and the “DQ Spot” value was determined as 111.81.

`CCn1c(-c2ccccn2)nc2cnccc21` [UNC10225156A]: the AK in data set [1] is given as 96.85. The compound further yielded a TFEB % in data set [2] of 4.22%. Also, the TFE3 % in data set [3] is 11.71%. Also, the “Nuclear Count” value in data set [4] came out at 94.90. Further, in data set [5], the “DQ Intensity” value is on record as 124.07 and the “DQ Spot” value worked out at 112.23.

Turning to `CCn1cnc2c(NCc3ccccc3)ncnc21` [UNC10225370A], the AK in data set [1] came to 79.45. In data set [2], this compound registered a TFEB % of 4.85%. For the same compound, the TFE3 % in data set [3] worked out at 13.91%. Moreover, the “Nuclear Count” value in data set [4] is reported as 102.90. Besides, in data set [5], the “DQ Intensity” value is 98.37 and the “DQ Spot” value amounted to 103.57.

On to `COC(=O)Nc1nc2ccc(Oc3ccc(NC(=O)Nc4cc(C(F)(F)F)ccc4F)cc3)cc2n1C` [GW692089], for which the AK in data set [1] was 128.42. The TFEB % in data set [2] is 7.12%. In addition, the TFE3 % in data set [3] stood at 18.60%. In addition, the “Nuclear Count” value in data set [4] is recorded as 60.83. The “DQ Intensity” value in data set [5] (DQ Red BSA intensity) is on record as 156.96. For the same compound, the “DQ Spot” value in data set [5] (DQ Red BSA spot count) was determined as 122.99.

Consider `O=C(NCCNc1ccnc(Nc2ccc(F)cc2)n1)Nc1ccccc1F` [GSK1379880], for which the AK in data set [1] is 82.91. The compound also registered a TFEB % in data set [2] of 3.19%. In data set [3], this compound gave a TFE3 % of 7.81%. Further, the “Nuclear Count” value in data set [4] is given as 133.27. The “DQ Intensity” value in data set [5] (DQ Red BSA intensity) was 104.78. For the same compound, the “DQ Spot” value in data set [5] (DQ Red BSA spot count) was determined as 97.82.
